Measured values as given in patent publication US10975037B2 (priority 2018, dated 2021).
Structures can show the parent of a compound that is named as a salt. Where two headings read alike, the source gives them in different places.

How the values were obtained:
[1] = molecular target: human RORγt ligand binding domain (RORγt LBD) (Homo sapiens (Human), UniProt P51449); experiment: RORγt ThermoFluor® assay (thermal shift binding)
Summary of the method: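 Thermal shift with 0.065 mg/mL RORγt LBD and 60 μM 1,8-ANS in 100 mM Hepes pH 7.0, 10 mM NaCl, 2.5 mM GSH, 0.002% Tween-20.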

[2] = molecular target: full-length human RORγt (Homo sapiens (Human), UniProt P51449); experiment: RORγt (full-length human) reporter assay, conditions A or B, HEK293T cells; type: cell-based; details: for inhibition at 2 µM: 2 μM compound concentration; for inhibition at 3 µM: 3 μM compound concentration (footnote *); for inhibition at 6 µM: read-out: RORγt (FL) Reporter Assay A or B, % inhibition @ 6 μM
Sequence of full-length human RORγt (P51449 other isoform, or with tags, fused parts or gaps): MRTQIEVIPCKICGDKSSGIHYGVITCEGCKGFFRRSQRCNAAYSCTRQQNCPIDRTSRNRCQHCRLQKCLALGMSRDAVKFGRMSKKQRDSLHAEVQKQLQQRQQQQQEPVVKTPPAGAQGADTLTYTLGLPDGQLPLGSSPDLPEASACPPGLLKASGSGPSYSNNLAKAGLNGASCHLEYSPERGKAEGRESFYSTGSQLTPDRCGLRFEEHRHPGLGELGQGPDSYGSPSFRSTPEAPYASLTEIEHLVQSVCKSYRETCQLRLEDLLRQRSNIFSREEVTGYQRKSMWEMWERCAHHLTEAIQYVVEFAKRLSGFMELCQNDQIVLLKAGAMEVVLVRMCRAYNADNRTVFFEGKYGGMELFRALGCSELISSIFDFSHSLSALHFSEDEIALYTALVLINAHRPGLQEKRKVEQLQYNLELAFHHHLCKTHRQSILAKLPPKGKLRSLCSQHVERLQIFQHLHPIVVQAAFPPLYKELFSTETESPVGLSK
Summary of the method: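 Dual-luciferase read-out was taken after an overnight (16–20 h) compound exposure. Firefly data were scaled between DMSO-only and saturating reference compound, Renilla-normalized, then plotted against concentration for IC50.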

[3] = read-out: ThermoFluor® Assay, Kd
[4] = HEK-293T, read-out: RORγt (FL) Reporter Assay A or B, % inhibition
[5] = RORγt (FL) Reporter Assay A or B, IC50, HEK293T cells
[6] = HEK-293T, 0.22 μM compound concentration (footnote *******), read-out: RORγt (FL) Reporter Assay A or B, % inhibition

Sequence of human RORγt ligand binding domain (RORγt LBD) (P51449 other isoform, or with tags, fused parts or gaps): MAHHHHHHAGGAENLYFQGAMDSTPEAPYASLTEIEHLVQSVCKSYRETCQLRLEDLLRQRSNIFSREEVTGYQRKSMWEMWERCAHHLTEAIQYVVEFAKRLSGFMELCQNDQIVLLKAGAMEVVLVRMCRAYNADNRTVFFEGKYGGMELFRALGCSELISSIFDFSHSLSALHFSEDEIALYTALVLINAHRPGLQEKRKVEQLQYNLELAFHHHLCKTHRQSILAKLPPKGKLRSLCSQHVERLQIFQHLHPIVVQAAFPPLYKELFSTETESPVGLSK

Row | SMILES | Kd [1, 3] [nM] | IC50 [2, 5] [nM] | Kd ([1]; ThermoFluor® Assay, Kd) [nM] | also measured
1 | CCn1nc(C(=O)NC[C@]2(O)CC[C@@H](S(C)(=O)=O)CC2)c(Cl)c1-c1ccc(CCC(C)C)cc1OC [Example 75, 4-Chloro-1-ethyl-N-(((1s,4s)-1-hydroxy-4-(methylsulfonyl)cyclohexyl)methyl)-5-(4-isopentyl-2-methoxyphenyl)-1H-pyrazole-3-carboxamide] | 0.88 | 25 |  | inhibition at 2 µM [2, 4]: 62%
2 | CCn1nc(C(=O)NC[C@@]2(O)CC[C@H](S(C)(=O)=O)C[C@@H]2O)c(C)c1-c1ccc(C[C@H](C)C(F)(F)F)cc1OC(F)F (stereo in doubt) [Example 57, 5-(2-(Difluoromethoxy)-4-((S*)-3,3,3-trifluoro-2-methylpropyl)phenyl)-N-(((1S*,2S*,4S*)-1,2-dihydroxy-4-(methylsulfonyl)cyclohexyl)methyl)-1-ethyl-4-methyl-1H-pyrazole-3-carboxamide] |  | 35 | 5.7 | inhibition at 3 µM [2, 4]: 95%
3 | CCn1nc(C(=O)NC[C@]2(O)CC[C@@H](S(C)(=O)=O)CC2)c(Cl)c1-c1ccc(C[C@H](C)C(F)(F)F)cc1OC(F)F (single isomer, unassigned) [Example 56, 4-Chloro-5-(2-(difluoromethoxy)-4-((S*)-3,3,3-trifluoro-2-methylpropyl)phenyl)-1-ethyl-N-(((1s,4R)-1-hydroxy-4-(methylsulfonyl)cyclohexyl)methyl)-1H-pyrazole-3-carboxamide] |  | 8.7 | 1 | inhibition at […] ([2]; HEK-293T, 0.11 μM compound concentration (footnote ********), read-out: RORγt (FL) Reporter Assay A or B, % inhibition): 94%
4 | CCn1nc(C(=O)NC[C@H]2CC[C@H](S(N)(=O)=O)CC2)c(C)c1-c1ccc(C[C@H](C)C(F)(F)F)cc1OC(F)F (single isomer, unassigned) [Example 59, 5-(2-(difluoromethoxy)-4-((S*)-3,3,3-trifluoro-2-methylpropyl)phenyl)-1-ethyl-4-methyl-N-(((1r,4S)-4-sulfamoylcyclohexyl)methyl)-1H-pyrazole-3-carboxamide] |  | 19 | 1.2 | inhibition at […] ([2]; HEK-293T, 0.33 μM compound concentration (footnote *****), read-out: RORγt (FL) Reporter Assay A or B, % inhibition): 93%
5 | CCn1nc(C(=O)NC[C@]2(O)CC[C@H](S(C)(=O)=O)C[C@H]2O)c(Cl)c1-c1ccc(CC(C)(C)C(F)(F)F)cc1OC(F)F (single isomer, unassigned) [Example 48, 4-Chloro-5-(2-(difluoromethoxy)-4-(3,3,3-trifluoro-2,2-dimethylpropyl)phenyl)-N-(((1R*,2R*4S*)-1,2-dihydroxy-4-(methylsulfonyl)cyclohexyl)methyl)-1-ethyl-1H-pyrazole-3-carboxamide] |  | 61 | 31 | inhibition at 2 µM [2, 4]: 95%
6 | CCn1nc(C(=O)NC[C@]2(O)CC[C@@H](S(C)(=O)=O)CC2)c(Cl)c1-c1ccc([C@@](C)(O)CC(F)(F)F)cc1OC(F)F (single isomer, unassigned) [Example 99, 4-Chloro-5-(2-(difluoromethoxy)-4-((S*)-4,4,4-trifluoro-2-hydroxybutan-2-yl)phenyl)-1-ethyl-N-(((1s,4R)-1-hydroxy-4-(methylsulfonyl)cyclohexyl)methyl)-1H-pyrazole-3-carboxamide] |  | 2600 | 230 | inhibition at 3 µM [2, 4]: -21%
7 | COc1cc(N[C@H](C)C(F)(F)F)ccc1-c1c(Cl)c(C(=O)NC[C@]2(O)CC[C@@H](S(C)(=O)=O)CC2)nn1CC(C)C [Example 29, 4-Chloro-N-(((1s,4S)-1-hydroxy-4-(methylsulfonyl)cyclohexyl)methyl)-1-isobutyl-5-(2-methoxy-4-(((R)-1,1,1-trifluoropropan-2-yl)amino)phenyl)-1H-pyrazole-3-carboxamide] | 8.3 | 61 |  | inhibition at 6 µM ([2]; HEK-293T): 108%
8 | CCn1nc(C(=O)NC[C@H]2CC[C@@H](S(C)(=O)=O)CN2)c(Cl)c1-c1ccc(CC(C)(C)C(F)(F)F)cc1OC(F)F (stereo in doubt) [Example 13, 4-Chloro-5-(2-(difluoromethoxy)-4-(3,3,3-trifluoro-2,2-dimethylpropyl)phenyl)-1-ethyl-N-(((2R*,5R*)-5-(methylsulfonyl)piperidin-2-yl)methyl)-1H-pyrazole-3-carboxamide] |  | 190 | 110 | inhibition at 3 µM [2, 4]: 90%
9 | CCn1nc(C(=O)NC[C@]2(O)CC[C@@H](S(C)(=O)=O)CC2)c(C#N)c1-c1ccc(CC(C)(C)C(F)(F)F)cc1OC [Example 126, 4-Cyano-1-ethyl-N-(((1s,4s)-1-hydroxy-4-(methylsulfonyl)cyclohexyl)methyl)-5-(2-methoxy-4-(3,3,3-trifluoro-2,2-dimethylpropyl)phenyl)-1H-pyrazole-3-carboxamide] | 12 | 84 |  | inhibition at 6 µM ([2]; HEK-293T): 101%
10 | CCn1nc(C(=O)NC[C@@H]2CC[C@@H](S(C)(=O)=O)C[NH+]2CC(=O)ON)c(Cl)c1-c1ccc(CC(C)(C)C(F)(F)F)cc1OC(F)F (stereo in doubt) [Example 63, N-(((2S*,5R*)-1-(2-(Aminooxy)-2-oxoethyl)-5-(methylsulfonyl)piperidin-2-yl)methyl)-4-chloro-5-(2-(difluoromethoxy)-4-(3,3,3-trifluoro-2,2-dimethylpropyl)phenyl)-1-ethyl-1H-pyrazole-3-carboxamide Trifluoroacetic Acid Salt] |  | 8 | 1 | inhibition at 3 µM [2, 4]: 109%
11 | CCn1nc(C(=O)NCC2(N)CCC(S(C)(=O)=O)CC2)c(Cl)c1-c1ccc(CC(C)C(F)(F)F)cc1OC (stereo not drawn) [Example 128, N-((1-Amino-4-(methylsulfonyl)cyclohexyl)methyl)-4-chloro-1-ethyl-5-(2-methoxy-4-(3,3,3-trifluoro-2-methylpropyl)phenyl)-1H-pyrazole-3-carboxamide] | 140 | 850 |  | inhibition at 2 µM [2, 4]: 63%

Now from value to molecule, other results behind:

Row | Kd [1, 3] [nM] | IC50 [2, 5] [nM] | Kd ([1]; ThermoFluor® Assay, Kd) [nM] | SMILES | also measured
12 | 9.9 | 30 |  | CCn1nc(C(=O)NC[C@H]2CC[C@H](S(C)(=O)=O)CC2)c(Cl)c1-c1ccc(OC2CCC(F)(F)CC2)cc1OC [Example 219, 4-Chloro-5-(4-((4,4-difluorocyclohexyl)oxy)-2-methoxyphenyl)-1-ethyl-N-(((1r,4r)-4-(methylsulfonyl)cyclohexyl)methyl)-1H-pyrazole-3-carboxamide] | inhibition at 0.67 µM [2, 4]: 98%
13 | 13 | 53 |  | CCn1nc(C(=O)NC[C@H]2CC[C@H](S(C)(=O)=O)CC2)c(Cl)c1-c1ccc(N[C@H](C)C(F)(F)F)cc1C(C)C [Example 204, 4-Chloro-1-ethyl-5-(2-isopropyl-4-(((R)-1,1,1-trifluoropropan-2-yl)amino)phenyl)-N-(((1r,4R)-4-(methylsulfonyl)cyclohexyl)methyl)-1H-pyrazole-3-carboxamide] | inhibition at 2 µM [2, 4]: 102%
14 | 180 | 850 |  | COc1cc(N[C@H](C)C(F)(F)F)ccc1-c1c(Cl)c(C(=O)NC[C@H]2CC[C@H](S(C)(=O)=O)CC2)nn1CC(C)(C)O [Example 202, 4-Chloro-1-(2-hydroxy-2-methylpropyl)-5-(2-methoxy-4-(((R)-1,1,1-trifluoropropan-2-yl)amino)phenyl)-N-(((r,4R)-4-(methylsulfonyl)cyclohexyl)methyl)-1H-pyrazole-3-carboxamide] | inhibition at 6 µM ([2]; HEK-293T, 6 μM compound concentration): 93%
15 | 6.3 |  |  | CCn1nc(C(=O)NC[C@H]2CC[C@H](S(C)(=O)=O)CC2)c(C(F)(F)F)c1-c1ccc(N[C@H](C)C(F)(F)F)cc1OC [Example 218, 1-Ethyl-5-(2-methoxy-4-(((R)-1,1,1-trifluoropropan-2-yl)amino)phenyl)-N-(((1r,4R)-4-(methylsulfonyl)cyclohexyl)methyl)-4-(trifluoromethyl)-1H-pyrazole-3-carboxamide] | RORγt (FL) Reporter Assay A or B, % inhibition @ 6 μM ([2]; 6 μM compound concentration): 105%; IC50 ([2]; HEK293T cells, read-out: RORγt (FL) Reporter Assay A or B, IC50): 61 nM
16 | 3 | 3.9 |  | CCn1nc(C(=O)NC[C@]2(O)CC[C@@H](S(C)(=O)=O)CC2)c(Cl)c1-c1ccc(CC(C)(C)C(F)(F)F)cc1C [Example 183, 4-Chloro-1-ethyl-N-(((1s,4s)-1-hydroxy-4-(methylsulfonyl)cyclohexyl)methyl)-5-(2-methyl-4-(3,3,3-trifluoro-2,2-dimethylpropyl)phenyl)-1H-pyrazole-3-carboxamide] | inhibition at […] [2, 6]: 70%
17 | 7 | 45 |  | CCn1nc(C(=O)NC[C@H]2CC[C@H](S(C)(=O)=O)CC2)c(Cl)c1-c1ccc(N[C@H](C)C(F)(F)F)cc1F [Example 181, 4-Chloro-1-ethyl-5-(2-fluoro-4-(((R)-1,1,1-trifluoropropan-2-yl)amino)phenyl)-N-(((1r,4R)-4-(methylsulfonyl)cyclohexyl)methyl)-1H-pyrazole-3-carboxamide] | inhibition at 2 µM [2, 4]: 101%
18 |  | 4.6 | 0.2 | CCn1nc(C(=O)NC[C@H]2CC[C@H](S(=O)(=O)CC)CC2)c(Cl)c1-c1ccc(CC(C)(C)C(F)(F)F)cc1OC(F)F [Example 133, 4-Chloro-5-(2-(difluoromethoxy)-4-(3,3,3-trifluoro-2,2-dimethylpropyl)phenyl)-1-ethyl-N-(((1r,4r)-4-(ethylsulfonyl)cyclohexyl)methyl)-1H-pyrazole-3-carboxamide] | inhibition at […] [2, 6]: 107%
